According to patent US7728146B2, “Enzyme inhibitors” (Probiodrug AG, priority 2006, dated 2010):

Key:
[1] = target: DP IV (Homo sapiens, UniProt P27487); test: Ki and inhibition type, DP IV; type: biochemical; conditions: compounds obtained by preparative synthesis
Summary of the method: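 Ki by non-linear regression of 7 inhibitor dilutions (range from IC50) against 4 substrate dilutions, in triplicate, using purified human recombinant enzyme under IC50 assay conditions. Inhibition type assigned from the best-fitting equation (competitive, partial competitive, non-competitive); […].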

[2] = target: DPII (Homo sapiens, UniProt Q9UHL4); test: DPII assay; type: biochemical; conditions: for Selectivity DPII(IC50)/DPIV(Ki): ratio IC50 DPII / Ki DP IV
Description: Determination of IC50 values for DPII and DP9 are done similarly as described for DP IV.
For DPII instead of the HEPES buffer a 0.2 M sodium acetate buffer pH 5.5 is used. As substrate Gly-Pro-AMC is used in a final concentration of 1 mM.

[3] = tested on: neuroblastoma cell line SY5Y; test: LD50 determination on SY5Y (LDH); type: cell-based; conditions: 8 serial dilutions, highest concentration 1 mM
Description: After 24 h of cultivation in a 96 well plate (50 000 cells/well) compounds (dissolved in DMSO) are added and cytotoxicity and vitality of the cells are analysed after another 24 h of cultivation using the CytoTox-One Homogenoeous membrane toxicity assay (Promega).
For cytotoxicity the LDH activity in the cell culture media after 24 h of incubation are analysed. The untreated control is set to 0% cytotoxicity. For the 100% value LDH activity of lysed untreated cells are analysed.
For viability cell culture media are removed from the cells and all cells are lysed using the lysis buffer. LDH activity is determined and untreated control is set to 100% viability.
For determination of LD50 the liver carcinoma cell line HEP-G2 and the neuroblastoma cell line SY5Y may be used. The effect of 8 serial dilutions of the compounds (highest concentration 1 mM) is investigated as described above.

[4] = Caco-2 transport assay; type: in vitro ADME, human; conditions: human, Caco-2, pH 7.5; for Papp A→B: apical to basal; for Papp B→A: basal to apical
Description: (§1) The concentration of compounds in the Caco experiments may be determined from their potency to inhibit recombinant human DP IV.
(§2) Reaction is started by addition of 20 μl rhDP IV and release of pNA was monitored at 405 nm. Samples are analyzed in several dilutions (undiluted, 1:10, 1:[…]). Dilutions are done in the Caco assay buffer. Activity measured with Caco-assay buffer alone is set to 100% and inhibitor concentration is calculated from the dilutions resulting in 20 to 80% inhibition according to the equation for competitive inhibition.
(§3) [formula] • I=inhibitor concentration • v0=velocity of the reaction without inhibitor (Caco assay buffer alone) • vi=velocity of the reaction with inhibitor sample • Ki=Ki-value of the compound • DF=dilution factor of the sample Transport Assay
(§4) The human colon adenocarcinome cell line Caco-2 are grown in 6- or 24-transwell microplates (Costar) for 21 days with MEM-alpha containing 10% FBS and 0.5% Gentamycin (Invitrogen). After 21 days of cultivation integrity of the cell layer are assessed by measurement of the transepitelial electrical resistance.
(§5) Transport measurements are carried out in triplicates at a pH of 7.5. For each compound and direction (apical to basal (a-b), basal to apical (b-a)) two separate experiments are done. Samples are collected from the donor and acceptor compartments at the beginning of the experiment and after 60 min (for 6-well plates, Donor at 0 and 120 min, Acceptor at 15, 30, 60 and 120 min).
(§6) Samples are analyzed in several dilutions for their ability to inhibit human recombinant DP IV and compound concentrations may be calculated using the prior determined Ki-value (see above).
(§7) The permeability coefficient Papp is calculated according to the following equation:
(§8) [formula] • VA=Volume of the acceptor compartment • A=Area of the transwell membrane • t=sampling time • cAt=concentration in the acceptor compartment at sampling time • CDO=concentration in the donor compartment at t=0
(§9) Papp-values>1e-5 cm/s are assessed as good permeable, value<1e-6 cm/s as not permeable. Papp-values in between as medium permeable. Compounds where no significant difference were found between a-b and b-a transport are assessed to be passive transported.

[5] = tested on: Caco-2 monolayer; test: Caco-2 transport assay; type: in vitro ADME, human; conditions: assessment of permeability and transport type
Description: as §1, §2, §3, §4, §5, §6, §7, §8, §9

[6] = Blood-brain distribution / LogBB; type: in vivo; conditions: male Wistar rats, bolus plus 60 min continuous i.v. infusion; for Kp at 60 min / Kp at 1 h: Wistar (Crl:WI), rat, brain and plasma, iv; for Kp at 1 h: read-out: Brain/Plasma ratio; for LogBB Mean: mean of the animals
Description: Male Wistar rats (N=20, 5 per Group; Crl:WI) with a body weight ranging between 300 and 350 g were purchased from Charles River Laboratories (Sulzfeld, Germany).
One week after adaptation to the housing conditions, catheters were implanted into the carotid artery and jugular vein of the rats under general anaesthesia (i.p. injection of 0.25 ml/kg b.w. Rompun® [2%], BayerVital, Germany and 0.5 ml/kg b.w. Ketamin 10, Atarost GmbH & Co., Twistringen, Germany). The animals were allowed to recover for one week. The catheters were flushed with heparin-saline (100 IU/ml) three times per week. In case of dysfunction of the catheter, a new animal were recruited to implant catheters into the carotid artery and jugular vein of this new rat under general anaesthesia. No anaesthetics were administered during infusion for compound transfer.
The bolus dose of compounds were dissolved in 10 μl DMSO and than diluted to 1 ml with saline (0.154 mol/l) and were injected via the venous catheter (n=5 rats). Thereafter, a continuous i.v. infusion of the compound solved in 10 μl DMSO and diluted to 5 ml with saline (infusion rate 0.083 ml/min; Perfusor^R fm, B. Braun, Melsungen AG, Germany) were commenced for 60 min. 150 μl arterial blood samples were taken at 0, 20, 40, 50 and 60 min and stored on ice until centrifugation (12000 rpm for 2 min). Separated plasma were frozen in liquid nitrogen for further analysis.
After 60 min primed-continuous infusion the N=5 rats were heparinized with 50 IU per 100 g b.w. heparin 5 min before the end of protease inhibitor infusion. The rats were quickly anaesthetized with i.a. ketamin® injection and bled to death from the abdominal vessels. The aorta supplying the upper part of the body were separated and canulated. The upper part of the body (including the brain) were perfused with 20 ml ice cold saline to flush the vessels free within the brain. The brains were taken out of the skull, rinsed briefly in ice cold saline and placed on filter paper.
Preparation: The brains were divided into their hemispheres, which were weighed and frozen in liquid nitrogen for further analysis.
In plasma samples and brain tissues concentrations of compounds were measured using the aforementioned LC-MS methods.

[7] = sodium acetate buffer pH 5.5, Gly-Pro-AMC 1 mM

DP IV, sequence (P27487 whole entry): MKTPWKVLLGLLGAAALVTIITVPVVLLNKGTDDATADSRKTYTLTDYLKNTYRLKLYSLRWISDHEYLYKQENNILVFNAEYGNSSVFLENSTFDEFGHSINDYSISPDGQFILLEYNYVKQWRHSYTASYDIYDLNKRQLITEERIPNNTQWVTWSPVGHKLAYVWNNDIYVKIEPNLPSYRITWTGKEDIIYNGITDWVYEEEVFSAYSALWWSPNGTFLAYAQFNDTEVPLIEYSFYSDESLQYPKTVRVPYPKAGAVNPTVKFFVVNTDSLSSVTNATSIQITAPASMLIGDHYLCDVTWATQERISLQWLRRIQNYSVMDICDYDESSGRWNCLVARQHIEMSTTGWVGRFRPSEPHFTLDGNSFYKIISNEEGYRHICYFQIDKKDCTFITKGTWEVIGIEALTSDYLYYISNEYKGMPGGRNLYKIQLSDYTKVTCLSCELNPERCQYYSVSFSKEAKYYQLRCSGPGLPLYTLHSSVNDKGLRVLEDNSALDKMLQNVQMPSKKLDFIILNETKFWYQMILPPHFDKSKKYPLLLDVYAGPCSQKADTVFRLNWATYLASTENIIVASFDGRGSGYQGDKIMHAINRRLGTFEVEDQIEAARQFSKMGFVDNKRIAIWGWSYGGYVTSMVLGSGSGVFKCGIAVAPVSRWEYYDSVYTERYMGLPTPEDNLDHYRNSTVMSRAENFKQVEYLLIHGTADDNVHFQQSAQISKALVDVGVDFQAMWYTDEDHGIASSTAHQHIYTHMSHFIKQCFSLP

SMILES	Ki [1] [nM]	Selectivity DPII(IC50)/DPIV(Ki) [2]	IC50 [2, 7] [µM]	LD50 Viability SY5Y [3] [mM]	LD50 cytotox SY5Y [3] [mM]	Papp A→B [4] [×10⁻⁶ cm/s]	Papp B→A [4] [×10⁻⁶ cm/s]	Transport [5]	LogBB ([6]; Animal No. 1)	LogBB ([6]; Animal No. 2)	LogBB ([6]; Animal No. 3)	LogBB ([6]; Animal No. 4)	LogBB ([6]; Animal No. 5)	Kp at 60 min [6]	Kp at 1 h [6]	LogBB Mean [6]	Ki [2] [µM]	IC50 ([2]; values >1e−4 are extrapolated values) [µM]
NCc1c(-c2ccc(Cl)cc2Cl)ncn1Cc1ccccc1 [Example 24b, (1-benzyl-4-(2,4-dichlorophenyl)-1H-imidazol-5-yl)methanamine]	4.74	6,329	30	0.11	0.19	37.5	41.7	good, passive	−0.36	−0.33	−0.26	−0.34	−0.29	0.483	0.483	−0.3160		
NCc1c(-c2ccc(Cl)cc2Cl)ncn1Cc1ccsc1 [Example 130b, (4-(2,4-dichlorophenyl)-1-((thiophen-3-yl)methyl)-1H-imidazol-5-yl)methanamine]	7.69	186	1.43	0.17	0.28	40	31.2	good, passive	−0.65	−0.63	−1.03	−0.12	−0.76	0.23	0.23	−0.6380	3.84	
NCc1c(-c2ccc(Cl)cc2Cl)ncn1Cc1ccccn1 [Example 39b]	5.68	>176,056	> 100	0.29	0.60	40.6	42.5	good, passive	−0.56	−0.43	−0.53	−0.38	−0.39	0.275	0.275	−0.4580		
NCc1c(-c2ccc(Cl)cc2Cl)ncn1Cc1cccnc1 [Example 121b, (4-(2,4-dichlorophenyl)-1-((pyridin-3-yl)methyl)-1H-imidazol-5-yl)methanamine]	2.96	41,216		0.46	0.68	36.4	40.4	good, passive	−0.57	−0.50	−0.70	−0.91		0.214	0.214	−0.6700		122
